How the values were obtained:
[1] = test system: carrageenin-induced paw edema; experiment: Effect on carrageenin-induced paw edema (anti-inflammatory effect), method of Winter et al.; assay type: in vivo, Wistar strain male rats; conditions: Rattus norvegicus, oral, 1 hour before 1% carrageenin, paw volume 3 hours after injection, Wistar male rats, read-out: Anti-inflammatory Effect Inhibition Rate (%)
Procedure: (2) Effect on carrageenin-induced paw edema (Anti-inflammatory Effect)
This test was conducted according to the method by Winter et al.[Winter C.A. et al.: Proc. Soc. Exptl.
As the animals to be tested, groups of 5 - 10 Wistar strain male rats weighing 140 ± 10 g were used, and a 1% carrageenin solution was employed as the phlogistic agent. The compound to be tested was - orally administered to the animals, and an hour later, 0.1 ml of the phlogistic agent was injected subcutaneously to the right hind paw, to induce edema.
The volume of the paw was measured before the injection of the phlogistic agent and 3 hours after the injection, and based on these volume measurements, the edema rate was calculated from the following equation: [formula]
Vn: The volume before the phlogistic agent treatment.
Vt: The volume after the phlogistic agent treatment.
The effect was determined, compared with the control group, the group to which the compound to be tested was not administered and expressed in terms of the inhibition rate of edema. The inhibition rate was calculated from the following equation.
Ec: The average edema rate of the control group.
Et: The average edema rate of the group to which the compound to be tested was administered...

dd strain male mice = experiment: Acute toxicity, oral administration, deaths counted over one week; assay type: in vivo; conditions: Dose: 1500mg/kg, observed for a week
acetic acid writhing = experiment: Analgesic effect, acetic acid writhing method (Koster et al.); assay type: in vivo, dd strain male mice; conditions: Mus musculus, oral, 60 minutes before 0.7% acetic acid i.p., number of writhes, dd male mice, read-out: Analgesic Effect Inhibition Rate (%)
Procedure: (3) Analgesic Effect (Acetic Acid Writhing Method) This was done according to the method by Koster, et al Federation Proc. 18, 412 (1959)]. The animals to be tested were groups of 10 dd strain male nice weighing 20 ± 1 g. The compound to be tested .was administered orally, and 60 minutes after the administration, 0.2 ml of a 0.7% acetic acid solution ,vas administered intraperitoneally. For a period of 10 minutes from […] minutes after the administration of said acetic acid solution, the number of writhes was measured and the average number was determined. The unhibition rate (%) was calculated from the following equation. [formula] Ec: The average number of writhes in the control group. Et: The average number of writhes in the group to which the compound to be tested was administered.

Row | SMILES | inhibition in vivo at 100 mg/kg [1] | Acute Toxicity Nos. of Deaths/ Nos. of Tests (dd strain male mice) | inhibition in vivo at 100 mg/kg (acetic acid writhing)
1 | COc1ccc(C(=O)Nc2cccc(F)c2)cc1N [Compound 1, 3-Amino-3'-fluoro-4-methoxy-benzanilide] | 64.3% | 0/6 | 41.9%
2 | COc1ccc(C(=O)Nc2cccc(C(F)(F)F)c2)cc1N [Compound 2, 3-Amino-3'-trifluoro-methyl-4-benzanilide] | 38.8% | 0/6 | 48.8%
3 | COc1ccc(C(=O)Nc2cc(C(F)(F)F)cc(C(F)(F)F)c2)cc1N [Compound 3, 3-Amino-3',5'-ditrifluoro-methyl-4-methoxy-benzanilide] | 16.9% | 0/6 | 24.6%
4 | COc1ccc(C(=O)Nc2ccc(Cl)cc2C(F)(F)F)cc1N [Compound 4, 3-Amino-2'-trifluoro-methyl-4'-chloro-4-methoxy-benzanilide] | 8.7% | 0/6 | 34.8%
5 | COc1ccc(C(=O)Nc2cc(C(F)(F)F)ccc2Cl)cc1N [Compound 5, 3-Amino-2'-chloro-5'-tri-fluoromethyl-4-methoxy-benzanilide] | 0% | 0/6 | 52.3%
6 | COc1ccc(C(=O)Nc2ccccc2)cc1N [Compound 6, 3-Amino-4-methoxy-benzanilide] | 55.9% | 0/5 | 43.4%
7 | COc1ccc(C(=O)Nc2ccc(Cl)cc2Cl)cc1N [Compound 7, 3-Amino-2',4'-dichloro-4-methoxy-benzanilide] | 5.5% | 0/6 | 40.2%
8 | COc1ccc(C(=O)Nc2c(C)cccc2C)cc1N [Compound 8, 3-Amino-2',6'-dimethyl-4-methoxy-benzanilide] | 19.5% | 0/6 | 45.7%
9 | CC(C)Cc1ccc(C(C)C(=O)O)cc1 (stereo not drawn) [Ibuprofen, α-methyl-4-(2-methylpropyl) benzene acetic acid, reference compound] | 68.4% | 2/5 | 16.3%
10 | COc1cc(C)nc(-n2nc(C)cc2OC)n1 [Mepirizole, 4-methoxy-2-(5-methoxy-3-meLhylpyrazol-1-yl)-6-methylpyrimidine, reference compound] | 29.2% | 2/2 | 44.6%
